In PubChem BioAssay AID1918945 (Molecular Pharmacology Branch, DTP, NCI, 2023):

System: 883617-216-R-J1-PDC complex spheroid viability
Experiment: Anticancer human tumor 883617-216-R-J1-PDC patient-derived bladder carcinoma cell line growth inhibition
Settings: for IC50: curve of first compound; for viability, T/C: stronger effect = lower value; active means viability on the fitted dose curve at most 10% of control; inactive means the rest
Excerpt: Multicellular complex tumor spheroid response to LSD1 Inhibitor Iadademstat in combination with a variety of drugs and investigational agents in selected tumor cell lines
The current study was undertaken to assess response to LSD1 inhibitors in combination with standard-of-care drugs and investigational agents in solid tumor complex spheroid models as well as in the K-562 leukemia. Complex spheroids include a stromal component modeled by human endothelial cells (HUVEC) and fibroblasts modeled by human mesenchymal stem cells (MSCs). The concentration ranges selected for each drug and investigational agent were based upon clinically achievable concentrations if the clinical Cmax of the agent was known.
Compounds. The drugs and investigational agents used in this study are listed on Table 1. All of the agents used, including staurosporine (NSC755774) and gemcitabine (NSC613327), were obtained from the Developmental Therapeutics Program, NCI. FDA-approved anticancer drugs are available from the NCI at http://dtp.nci.nih.gov/branches/dscb/oncology_drugset_explanation.html. Drugs and investigational agents were >95% pure by proton nuclear magnetic resonance (NMR) and liquid chromatography/mass spectrometry (LC/MS). Stock solutions were prepared at 400x in DMSO, stored at -70 degrees C, and diluted in fresh medium prior to their use. The final concentration of DMSO in cell culture wells never exceeded 0.25% (v/v). The FDA-approved anticancer drug set is available from the Developmental Therapeutics Program at https://dtp.cancer.gov/organization/dscb/obtaining/available_plates.htm. All drugs and investigational agents were tested over a range starting from a high concentration at or near the clinical Cmax and decreasing in half-log increments. If the clinical Cmax for an agent had not been determined, the highest concentration tested was 10 microM.
Cell Lines. The patient-derived cancer cell (PDC) lines: 292921-168-R-J2-PDC, K24384-001-R-PDC, and 521955-158-R2-J5-PDC pancreatic carcinomas, 556581-035-R-J1 ovarian carcinoma, 324938-238-R-J1-PDC, 855422-203-R-J1-PDC and 883617-216-R-J1-PDC urothelial bladder carcinomas, 743489-274-T-PDC renal cell carcinoma, 138582-R-J1 Merkel cell tumor, K60290-347-R-J1 and K57222-313-R-J1-PDC glioblastomas, 653999-131-R-J2-PDC, LG0703-F948-PDC, and 349418-098-R-PDC non-small cell lung carcinomas, 885512-296-R-J2-PDC, 171881-019-R-J1-PDC breast carcinomas and 186277-243-T-J2-PDC and 233499-124-R-J2-PDC colon carcinomas were obtained from the NCI Patient-Derived Models Repository (PDMR, https://pdmr.cancer.gov). The established cell lines NCI/ADR-RES (RRID:CVCL_14520 and OVCAR-5 (RRID:CVCL_1628) ovarian carcinomas, 786-O (RRID:CVCL_1051) and A498 (RRID:CVCL_A498) renal cell carcinoma, NCI-H211 (ATCC, cat. CRL-5824; RRID:CVCL_1529), NCI-H196 (ATCC, cat. CRL-5823, RRID:CVCL_1509), SW 1271 (ATCC, cat. CRL-2177, RRID:CVCL_1716) and NCI-H1876 (ATCC, cat. CRL-5902, RRID:CVCL_1503) small cell lung carcinomas, MDA-MB-231 (RRID:CVCL_0062) and MDA-MB-468 (RRID:CVCL_0419)breast carcinomas (10-12). Pooled donor human umbilical vein endothelial cells (HUVEC, Lonza, cat. CC-2519) and human mesenchymal stem cells (hMSC, Lonza, cat. PT-2501) were purchased from Lonza (Walkersville, MD).
Cell Culture. All cells were maintained in an incubator at 37 degrees C and 5% CO2 with 95% humidity. The PDC lines were cultured according to standard operating procedures established by the NCI PDMR (https://pdmr.cancer.gov). Briefly all PDCs were thawed and cultured in Matrigel-coated flasks prepared with a working solution of 1X Ham's F-12 nutrient mix, without supplementation (Invitrogen, Waltham, MA, cat. 11765054), 100 U/mL penicillin-streptomycin (Invitrogen, cat. 15140122), and 2.5% Matrigel (Corning Inc., Corning, NY, cat. 354248) for the first three passages. […]
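Further: exposure lasted seven days after three days of spheroid growth.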
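Wherever viability, T/C is given: 100% = DMSO vehicle control luminescence.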

NS(=O)(=O)OCC1CC(n2ccc3c(NC4CCc5ccccc54)ncnc32)CC1O (stereo not given) + NC1CC1c1ccc(-c2cccc(O)c2)cc1
221 nM: IC50 (second compound 0.1 µM)
active: viability, T/C (second compound 0.1 µM, first compound 3 µM) 8.35%
155 nM: IC50 (second compound 10 µM)
202 nM: IC50 (second compound 3.16 µM)
219 nM: IC50 (second compound 1 µM)
inactive: viability, T/C (second compound 0.1 µM, first compound 0.00949 µM) 123% | viability, T/C (second compound 0.1 µM, first compound 0.03 µM) 144% | viability, T/C (second compound 0.1 µM, first compound 0.0949 µM) 112% | viability, T/C (second compound 0.1 µM, first compound 0.3 µM) 27.5% | viability, T/C (second compound 0.1 µM, first compound 0.949 µM) 10.8% | viability, T/C (second compound 0.316 µM, first compound 0.00949 µM) 124% | viability, T/C (second compound 0.316 µM, first compound 0.03 µM) 150% | viability, T/C (second compound 0.316 µM, first compound 0.0949 µM) 127% | viability, T/C (second compound 0.316 µM, first compound 0.3 µM) 26.7% | viability, T/C (second compound 0.316 µM, first compound 0.949 µM) 12.9% | viability, T/C (second compound 0.316 µM, first compound 3 µM) 8.2% | viability, T/C (second compound 1 µM, first compound 0.00949 µM) 135% | viability, T/C (second compound 1 µM, first compound 0.03 µM) 159% | viability, T/C (second compound 1 µM, first compound 0.0949 µM) 111% | viability, T/C (second compound 1 µM, first compound 0.3 µM) 28.3% | viability, T/C (second compound 1 µM, first compound 0.949 µM) 13% | viability, T/C (second compound 1 µM, first compound 3 µM) 10.2% | viability, T/C (second compound 3.16 µM, first compound 0.00949 µM) 122% | viability, T/C (second compound 3.16 µM, first compound 0.03 µM) 157% | viability, T/C (second compound 3.16 µM, first compound 0.0949 µM) 94.5% | viability, T/C (second compound 3.16 µM, first compound 0.3 µM) 29.7% | viability, T/C (second compound 3.16 µM, first compound 0.949 µM) 10.5% | viability, T/C (second compound 3.16 µM, first compound 3 µM) 9.87% | viability, T/C (second compound 10 µM, first compound 0.00949 µM) 126% | viability, T/C (second compound 10 µM, first compound 0.03 µM) 139% | viability, T/C (second compound 10 µM, first compound 0.0949 µM) 71.8% | viability, T/C (second compound 10 µM, first compound 0.3 µM) 27% | viability, T/C (second compound 10 µM, first compound 0.949 µM) 12.9% | viability, T/C (second compound 10 µM, first compound 3 µM) 9.23%
230 nM: IC50 (second compound 0.316 µM)

COc1cc(Nc2ncc3c(n2)-c2ccc(Cl)cc2C(c2c(F)cccc2OC)=NC3)ccc1C(=O)O + NC1CC1c1ccc(-c2cccc(O)c2)cc1
30.5 nM: IC50 (second compound 0.316 µM)
16.9 nM: IC50 (second compound 10 µM)
30.4 nM: IC50 (second compound 0.1 µM)
18.8 nM: IC50 (second compound 3.16 µM)
inactive: viability, T/C (second compound 0.1 µM, first compound 0.00316 µM) 92.4% | viability, T/C (second compound 0.1 µM, first compound 0.01 µM) 76.6% | viability, T/C (second compound 0.1 µM, first compound 0.0316 µM) 48.8% | viability, T/C (second compound 0.1 µM, first compound 0.1 µM) 37.8% | viability, T/C (second compound 0.1 µM, first compound 0.316 µM) 37.3% | viability, T/C (second compound 0.1 µM, first compound 1 µM) 33.4% | viability, T/C (second compound 0.316 µM, first compound 0.00316 µM) 109% | viability, T/C (second compound 0.316 µM, first compound 0.01 µM) 67.8% | viability, T/C (second compound 0.316 µM, first compound 0.0316 µM) 52.6% | viability, T/C (second compound 0.316 µM, first compound 0.1 µM) 37.6% | viability, T/C (second compound 0.316 µM, first compound 0.316 µM) 36.7% | viability, T/C (second compound 0.316 µM, first compound 1 µM) 36% | viability, T/C (second compound 1 µM, first compound 0.00316 µM) 106% | viability, T/C (second compound 1 µM, first compound 0.01 µM) 60.9% | viability, T/C (second compound 1 µM, first compound 0.0316 µM) 43.2% | viability, T/C (second compound 1 µM, first compound 0.1 µM) 39.7% | viability, T/C (second compound 1 µM, first compound 0.316 µM) 34.5% | viability, T/C (second compound 1 µM, first compound 1 µM) 36.5% | viability, T/C (second compound 3.16 µM, first compound 0.00316 µM) 81.8% | viability, T/C (second compound 3.16 µM, first compound 0.01 µM) 63.1% | viability, T/C (second compound 3.16 µM, first compound 0.0316 µM) 38.8% | viability, T/C (second compound 3.16 µM, first compound 0.1 µM) 37.2% | viability, T/C (second compound 3.16 µM, first compound 0.316 µM) 36.6% | viability, T/C (second compound 3.16 µM, first compound 1 µM) 31.5% | viability, T/C (second compound 10 µM, first compound 0.00316 µM) 72.7% | viability, T/C (second compound 10 µM, first compound 0.01 µM) 54.7% | viability, T/C (second compound 10 µM, first compound 0.0316 µM) 46.3% | viability, T/C (second compound 10 µM, first compound 0.1 µM) 31.6% | viability, T/C (second compound 10 µM, first compound 0.316 µM) 35.1% | viability, T/C (second compound 10 µM, first compound 1 µM) 32.6%
20.6 nM: IC50 (second compound 1 µM)
